From ChEMBL document CHEMBL1146796, “Design, synthesis and cytotoxic studies on the simplified oxy analog of eleutherobin” (2004)

Columns and labels:
HBL-100 [1] = test: (§1) Cytotoxic effect against HBL-100 (human breast cancer cell lines) by MTT assay at 10 ug concentration; type: functional
HBL-100 [2] = test: Cytotoxic effect against HBL-100 (human breast cancer cell lines) by MTT assay at 100 ug concentration; type: functional
HBL-100 [3] = test: as §1; type: functional, cell-based

CC1(C)O[C@@H]2[C@H](O1)[C@@H]1OCc3ccccc3C[C@@H](O)[C@H]2O1
Inhibition (HBL-100 [1]): 30.62%
Viability (HBL-100 [1]): 69.37%
Asorbance (HBL-100 [2]): 0.081
Inhibition (HBL-100 [2]): 63.3%
Viability (HBL-100 [2]): 36.69%
Absorbance (HBL-100 [3]): 0.153
